Source: patent US20030223978A1, “Conjugates of an AMF ligand and a cytotoxic molecule for use in cancer therapy” (priority 1998, published 2003)

Assays:
[1] = test system: B16-F10 metastatic murine melanoma cell line; test: Cell toxicity of AMF-doxorubicin conjugate; assay type: cell-based; conditions: approximately 0.3, 3, or 30 μg/ml; 3 (Expt. 1) or 4 days (Expt. 2); increasing concentrations
Protocol: Rabbit PHI is internalized by murine NIH-3T3 fibroblasts (Benlimame et al., 1998, Molec. Biol. Cell 9: 1773-1786) and the ability of the AMF-doxorubicin conjugate to kill metastatic tumor cells was tested with the B16-F10 metastatic murine melanoma cell line. B16-F10 cells were plated at a density of 4,000 cells/cm2 and after 24 hours in culture AMF-doxorubicin conjugate was added at a concentration of approximately 0.3, 3, or 30 μg/ml (FIG. 8). After 3 (Expt. 1) or 4 days (Expt. 2) the cultures were fixed and cells remaining attached to the substrate counted. The number of cells remaining attached to the substrate is presented relative to control cells to which no AMF-doxorubicin was added.

NIH-3T3 cells [2] = test: bAMF internalization, immunofluorescence and confocal microscopy; assay type: cell-based, mouse
Protocol: For the AMF internalization studies, NIH-3T3 cells were pulsed with biotinylated AMF (˜250-500 μg/ml) and chased at 37° C. for the indicated periods of time prior to fixation by the addition of precooled (−80° C.) methanol/acetone directly to the cells. […] Disruption of clathrin coated pits and vesicles by cytoplasmic acidification was performed essentially as previously described (Heuser, J. (1989) J. Cell Biol. 108, 401-411). NIH-3T3 cells were pretreated with acidification medium (DMEM containing 5% calf serum and 50 mM MES pH 5.5) for 15 minutes at 37° C. prior to addition of bAMF in acidification medium for one hour at 37° C. To ensure that cellular acidification blocked clathrin-mediated endocytosis, Texas Red transferrin (50 μg/ml) was added to cells in regular or acidification medium for 30 minutes at 37° C. after which the cells were fixed with 3% paraformaldehyde.
After labeling the coverslips were mounted in Airvol (Air Products and Chemicals Inc., Allentown, Pa.) and viewed in a Zeiss Axioskop fluorescent microscope equipped with a 63× Plan Apochromat objective and selective filters. Confocal microscopy was performed with the 60× Nikon Plan Apochromat objective of a dual channel BioRad 600 laser scanning confocal microscope equipped with a krypton/argon laser and the corresponding dichroic reflectors to distinguish fluorescein and Texas Red labeling. Confocal images were printed using a Polaroid TX 1500 video printer.

AMF-R = target: T1, AMF-R (Mus musculus, UniProt Q9R049); test: Cell surface labeling of viable cells at 4° C. with bAMF and anti-AMF-R; assay type: binding; conditions: viable NIH-3T3 cells, confocal
T1 construct: Confocal imaging of cell surface labeling of viable NIH-3T3 cells at 4° C. with bAMF; endogenous in cells; host or cells: NIH-3T3 fibroblasts (ATCC, a highly spread clone)
Protocol: Cells were plated on glass cover slips 2 days prior to each experiment at a concentration of 30,000 cells/35 mm dish. For AMF-R surface labeling, the cells were incubated in DMEM minus bicarbonate supplemented with 25 mM Hepes pH 7.2 and 2.5% serum for 15 min at 4° C. prior to labeling with anti-AMF-R primary antibody or biotinylated AMF at 4° C. for 30 min. The cells were washed at 4° C. and then fixed with 3% paraformaldehyde in phosphate buffered saline (pH 7.4) supplemented with 0.1 mM Ca++ and 1 mM Mg++ (PBS/CM) for 15 min at room temperature. For caveolin labeling, after AMF-R surface labeling at 4° C. and fixation as above, the cells were permeabilized with 0.2% Triton X-100 for 10 min, then extensively washed with PBS/CM containing 1% BSA. The cells were incubated with rabbit anti-caveolin polyclonal antibodies, washed, and then incubated with FITC goat anti-rat IgM to reveal anti-AMF-R and Texas Red donkey anti-rabbit IgG to reveal anti-caveolin.

NIH-3T3 cells [3] = test: bAMF internalization pathway by post-embedding electron microscopy; assay type: cell-based, mouse
Protocol: Post-embedding immunolabeling for AMF-R was performed as previously described (Benlimame, N. et al. (1995) J. Cell Biol. 129, 459-471). Cells grown on petri dishes were rinsed and incubated at 37° C. in Ringer's solution for 15 minutes before fixing in Ringer's solution containing 2% paraformaldehyde and 0.2% glutaraldehyde for 30 minutes at 37° C. The fixed cells were rinsed in PBS/CM, scraped from the petri dish and collected by centrifugation. The cell pellet was post-fixed for 30 minutes with 1% osmium tetroxide in PBS/CM containing 1.5% potassium ferrocyanide (reduced osmium), dehydrated and embedded in LR-White resin. […] The numerical density of gold particles associated with plasma membrane, caveolae, clathrin coated pits and vesicles, smooth tubules and vesicles, and rough ER was determined. The length of the limiting membrane of the indicated organelles was measured using a Sigma-Scan measurement system and the gold particles associated with these organelles counted. […] Control labeling with non-immune rat IgM antibodies was analyzed similarly.
To follow the endocytic pathway of AMF by electron microscopy, biotinylated AMF was internalized as described for the fluorescence studies and detected by postembedding labeling with streptavidin conjugated to 10 nm gold as described above.

T1 sequence (Q9R049 whole entry): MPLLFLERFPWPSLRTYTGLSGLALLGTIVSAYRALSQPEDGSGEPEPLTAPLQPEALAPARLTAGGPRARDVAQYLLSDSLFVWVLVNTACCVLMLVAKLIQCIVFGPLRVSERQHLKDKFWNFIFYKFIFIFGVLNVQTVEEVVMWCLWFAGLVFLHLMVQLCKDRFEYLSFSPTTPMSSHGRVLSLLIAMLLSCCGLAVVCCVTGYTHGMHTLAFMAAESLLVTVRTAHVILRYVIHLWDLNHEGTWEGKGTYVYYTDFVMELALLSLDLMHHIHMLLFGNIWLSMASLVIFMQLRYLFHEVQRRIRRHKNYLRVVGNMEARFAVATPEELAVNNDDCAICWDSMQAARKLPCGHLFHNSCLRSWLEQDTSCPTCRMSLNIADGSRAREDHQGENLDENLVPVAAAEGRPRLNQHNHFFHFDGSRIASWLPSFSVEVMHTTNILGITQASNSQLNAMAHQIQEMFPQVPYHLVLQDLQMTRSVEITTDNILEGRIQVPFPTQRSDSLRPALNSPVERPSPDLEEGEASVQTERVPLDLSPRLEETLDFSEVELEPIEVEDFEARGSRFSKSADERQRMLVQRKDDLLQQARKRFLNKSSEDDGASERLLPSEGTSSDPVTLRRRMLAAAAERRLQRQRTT

**Q.** “AMF-doxorubicin: commercially available PHI (AMF) conjugated to the cellular toxin doxorubicin by glutaraldehyde mediated crosslinking” was tested. Which “number of cells remaining attached to the substrate relative to control cells” value [1] did it give?
**A.** The value was “progressive toxicity”.

**Q.** With “bAMF: Rabbit phosphohexose isomerase (AMF) biotinylated with NHS-LC-biotin” as the substance, how does the “localization of internalized bAMF” value (NIH-3T3 cells [2]; 1 hour at 37° C., 10-fold excess unlabeled AMF) read?
**A.** Its value is “localized only to punctate structures”.

**Q.** What about the “localization of internalized bAMF” value (NIH-3T3 cells [2]; 1 hour at 37° C., medium acidified to pH 5.5 (clathrin-mediated endocytosis disrupted)) of the same substance?
**A.** The value was “localized to tubules which colocalize with AMF-R tubules”.

**Q.** And the “localization of internalized bAMF” value (NIH-3T3 cells [2]; 1 hour pulse at 37° C., regular medium)?
**A.** The value was “localized to tubular structures which colocalize with AMF-R tubules”.

**Q.** What about the “localization of internalized bAMF” value (NIH-3T3 cells [2]; two hour pulse, chase of 2 or 4 hours) of the same substance?
**A.** Its value is “accumulation of bAMF labeling in tubular structures which colocalized with AMF-R tubules”.

**Q.** What about the “colocalization of cell surface bAMF with anti-AMF-R labeling” value (AMF-R) of the same substance?
**A.** Its value is “high degree of colocalization”.

**Q.** What about the “localization of bAMF by streptavidin-10 nm gold” value (NIH-3T3 cells [3]; 10 minute pulse at 37° C.) of the same substance?
**A.** The value was “localized to cell surface caveolae”.

**Q.** What about the “localization of bAMF by streptavidin-10 nm gold” value (NIH-3T3 cells [3]; 30 minute pulse at 37° C.) of the same substance?
**A.** The value was “localized to caveolae and smooth vesicles”.
